Results from patent publication US8883827B2, “Azole derivatives as WTN pathway inhibitors” (Oslo University Hospital HF, priority 2009, dated 2014).

Key:
Assay type in all cases: cell-based
control cell lines = assay: MTS cell proliferation assay, Table 6, mean; conditions: HeLa, HCT116, LS174T; 10 μM, 72 h
From the text: (§1) Control cell lines used were HeLa cells (cell growth not controlled by canonical Wnt signalling) and colorectal cancer cell lines LS174T and HCT116 (with mutant β-catenin N-terminal phosphorylation sites). Target cell lines used were colorectal cancer cell lines WiDr, LoVo, HCT-8, HCT-15, COL0205, DLD-1, HT-29, SW620, SW1463, SW480 which all carry a mutant APC gene. Target cells, along with L Wnt3a-expressing cells and HEK293 cells, were purchased from ATCC (American Type Culture Collection) and maintained according to the supplier's recommendations. Wnt3a containing conditioned media (Wnt3a-CM) from L Wnt3a expressing cells was harvested as described by ATCC.
(§2) For the experiment giving the results shown in Table 6, cells were exposed to cell culture medium (including 10% FBS) containing 10 μM of the compound to be tested 24 hours after seeding (3000 cells on 96-well plates). Medium was changed daily. After 72 hours, an MTS assay (CellTiter 96® AQueous Non-Radioactive Cell Proliferation Assay—Promega) was carried out according to the standard procedure. 0.1% DMSO was used as a control.
(§3) The quantity of reduced MTS product (as measured by the absorbance at 490 nm) is directly proportional to the number of living cells in the culture and thus allows a direct comparison of cell proliferation in each case. DMSO was used as a control. The following formula was used to determine single well relative A490 sample values: ((Sample A490−Average A490t0)*100)/(Average A490t720.1% DMSO control−Average A490t0)
(§4) Data shown are A490-percentage values relative to the DMSO control, calculated as described above, and represent averages from 2 to 4 independent experiments (except SW1463 cells treated with IWR-1 which reports only a single experiment). Compounds IWR-1 and XAV939 are known Wnt pathway inhibitors.

APC mutant cell lines = assay: MTS cell proliferation assay, Table 6, mean; conditions: 10 μM, 72 h
From the text: as §1, §2, §3, §4

SW480 cells = assay: Growth inhibition (GI50) MTS assay; conditions: Homo sapiens, 72 h
Experimental: Growth inhibition curves were prepared using SW480 cells, prepared essentially according to Example 23. SW480 cells (3000 cells per well) were seeded on 96 well plates (eight replicates per treatment). 24 hours later and daily thereafter, cell culture media (including 10% FBS) was mixed with various compound concentrations or with 0.1% DMSO vehicle and then added to the wells. Sixteen wells of seeded control cells, defining incubation time zero (to =24 hour after cell seeding), were incubated with […] substrate in 100 μl of phenol-free D-MEM (Invitrogen) for 2 hours, as described in the CellTiter 96® AQueous Non-Radioactive Cell Proliferation Assay protocol (MTS, Promega). The A490 was recorded. The treatment samples were likewise measured after 72 hours. The following formula was used to determine the single well relative A490 sample values: ((Sample A490−Average A490t0)*100)/(Average A490t720.1% DMSO control−Average A490t0)
XLfit (idbs) was used to determine the IC50 and GI50 values in inhibition experiments. The data were fit to the following formulae:
GI50: Eadie-Hofstee Model: fit=(A+((B*x)/((C*(D+1))+x))) inv=(((y−A)*(C*(D+1)))/((A+B)−y)) res=(y−fit)

LS174T = assay: MTS cell proliferation assay, Table 6; conditions: LS174T (control); 10 μM, 72 h; relative to DMSO control
From the text: as §1, §2, §3, §4

WiDr = assay: MTS cell proliferation assay, Table 6; conditions: 10 μM, 72 h, relative to DMSO control
From the text: as §1, §2, §3, §4

SW620 = assay: MTS cell proliferation assay, Table 6; conditions: 10 μM, 72 h, relative to DMSO control
From the text: as §1, §2, §3, §4

HCT116 = assay: MTS cell proliferation assay, Table 6; conditions: HCT116 (control); 10 μM, 72 h; relative to DMSO control
From the text: as §1, §2, §3, §4

HeLa cells = assay: MTS cell proliferation assay, Table 6; conditions: HeLa (control); 10 μM, 72 h; relative to DMSO control
From the text: as §1, §2, §3, §4

HCT-8 = assay: MTS cell proliferation assay, Table 6; conditions: 10 μM, 72 h, relative to DMSO control
From the text: as §1, §2, §3, §4

HT-29 = assay: MTS cell proliferation assay, Table 6; conditions: 10 μM, 72 h, relative to DMSO control
From the text: as §1, §2, §3, §4

LoVo = assay: MTS cell proliferation assay, Table 6; conditions: 10 μM, 72 h, relative to DMSO control
From the text: as §1, §2, §3, §4

COLO205 = assay: MTS cell proliferation assay, Table 6; conditions: 10 μM, 72 h, relative to DMSO control
From the text: as §1, §2, §3, §4

HCT-15 = assay: MTS cell proliferation assay, Table 6; conditions: 10 μM, 72 h, relative to DMSO control
From the text: as §1, §2, §3, §4

SW1463 = assay: MTS cell proliferation assay, Table 6; conditions: 10 μM, 72 h, relative to DMSO control
From the text: as §1, §2, §3, §4

SW480 = assay: MTS cell proliferation assay, Table 6; conditions: 10 μM, 72 h, relative to DMSO control
From the text: as §1, §2, §3, §4

DLD-1 = assay: MTS cell proliferation assay, Table 6; conditions: 10 μM, 72 h, relative to DMSO control
From the text: as §1, §2, §3, §4

canonical Wnt signaling [1] = assay: ST-Luc (SuperTOPFlash) Luciferase assay in HEK293 cells, 30% Wnt3a-CM; conditions: Homo sapiens, HEK293; 10 μM compound, 30% Wnt3a-CM, 24 h; relative to DMSO control
In short: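 HEK293 cells were transiently co-transfected with SuperTOPFlash firefly luciferase and pRL-TK Renilla reporters, then treated 24 h with 10 μM compound in 30% Wnt3a-conditioned medium. Dual luciferase activity was read, and percent activity was expressed relative to DMSO control.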

canonical Wnt signaling [2] = assay: IC50 in STF/REN HEK293 cells, 50% Wnt3a-CM; conditions: Homo sapiens; STF/REN HEK293, 50% Wnt3a-CM, 24 h
In short: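 HEK293 cells carrying STF/REN reporters seeded at 80,000/well on poly-L-lysine; after 24 h, exposed 24 h to compound in 50% Wnt3a-conditioned medium. Firefly and Renilla luciferase measured by Dual-Glo; IC50 fitted to a Langmuir binding isotherm.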

Cc1ccc(-c2noc(CSc3nnc(-c4ccncc4)n3-c3ccccc3Cl)n2)cc1 [compound 43]
Mean proliferation (control cell lines) (control cell lines): 92% | Ratio of means (APC mutant cell lines; APC mutant cell lines versus control cell lines): 0.56 | Mean proliferation (APC mutant cell lines) (APC mutant cell lines; ten APC mutant colorectal lines): 52% | GI50 (SW480 cells): 8 µM | Cell proliferation (%) (LS174T): 99% | Cell proliferation (%) (WiDr): 76% | Cell proliferation (%) (SW620): 33% | Cell proliferation (%) (HCT116): 86% | Cell proliferation (%) (HeLa cells): 92% | Cell proliferation (%) (HCT-8): 69% | Cell proliferation (%) (HT-29): 63% | Cell proliferation (%) (LoVo): 64% | Cell proliferation (%) (COLO205): 33% | Cell proliferation (%) (HCT-15): 54% | Cell proliferation (%) (SW1463): 1% | Cell proliferation (%) (SW480): 51% | Cell proliferation (%) (DLD-1): 76% | activity at 10 µM (canonical Wnt signaling [1]): 7.8% | IC50 (canonical Wnt signaling [2]): 0.16 µM
